Source: the supplement of paper PMC9663587

Assays:
ABT-737 = compound: CN(C)CC[C@H](CSc1ccccc1)Nc1ccc(S(=O)(=O)NC(=O)c2ccc(N3CCN(Cc4ccccc4-c4ccc(Cl)cc4)CC3)cc2)cc1[N+](=O)[O-] [ABT-737]
Saracatinib/AZD0530 = compound: CN1CCN(CCOc2cc(OC3CCOCC3)c3c(Nc4c(Cl)ccc5c4OCO5)ncnc3c2)CC1 [Saracatinib/AZD0530]
Flavopiridol [1] = compound: T1, CN1CC[C@H](c2c(O)cc(O)c3c(=O)cc(-c4ccccc4Cl)oc23)[C@H](O)C1 [Flavopiridol]
[2] = compound: CO[C@@H](C)Cn1c(=O)n(C)c2cnc3ccc(-c4cncc(C(C)(C)O)c4)cc3c21
Taselisib/GDC0032 = compound: Cc1nc(-c2cn3c(n2)-c2ccc(-c4cnn(C(C)(C)C(N)=O)c4)cc2OCC3)n(C(C)C)n1 [Taselisib/GDC0032]
YKL-5-124 = compound: C=CC(=O)Nc1ccc(C(=O)Nc2[nH]nc3c2CN(C(=O)N[C@H](CN(C)C)c2ccccc2)C3(C)C)cc1 [YKL-5-124]; experiment: GR value, 72 h; higher = faster growth (1 = untreated, <0 = killing);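 further: breast cancer and non-malignant breast epithelial lines, nine half-log doses, viable cells counted by Hoechst and LIVE/DEAD dye imaging versus time-zero plates and DMSO controls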
BSJ-03-123 = compound: CC(=O)c1c(C)c2cnc(Nc3ccc(N4CCN(CCOCCOCCOCCNC(=O)COc5cccc6c5C(=O)N(C5CCC(=O)NC5=O)C6=O)CC4)cn3)nc2n(C2CCCC2)c1=O [BSJ-03-123]; experiment: as above
[3] = compound: CC(=O)c1c(C)c2cnc(Nc3ccc(N4CCNCC4)cn3)nc2n(C2CCCC2)c1=O; experiment: as above
[4] = compound: CCN1CCN(Cc2ccc(Nc3ncc(F)c(-c4cc(F)c5nc(C)n(C(C)C)c5c4)n3)nc2)CC1; experiment: as above
Neratinib/HKI272 = compound: CCOc1cc2ncc(C#N)c(Nc3ccc(OCc4ccccn4)c(Cl)c3)c2cc1NC(=O)/C=C/CN(C)C [Neratinib/HKI272]; experiment: as above
[5] = compound: CCc1cnn2c(NCc3ccc[n+]([O-])c3)cc(N3CCCC[C@H]3CCO)nc12; experiment: as above
LEE011/Ribociclib = compound: CN(C)C(=O)c1cc2cnc(Nc3ccc(N4CCNCC4)cn3)nc2n1C1CCCC1 [LEE011/Ribociclib]; experiment: as above
THZ531 = compound: CN(C)C/C=C/C(=O)Nc1ccc(C(=O)N2CCC[C@@H](Nc3ncc(Cl)c(-c4c[nH]c5ccccc45)n3)C2)cc1 [THZ531]; experiment: as above
THZ1 = compound: CN(C)C/C=C/C(=O)Nc1ccc(C(=O)Nc2cccc(Nc3ncc(Cl)c(-c4c[nH]c5ccccc45)n3)c2)cc1 [THZ1]; experiment: as above
Flavopiridol [6] = compound: T1, Flavopiridol; experiment: as above
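Wherever GR50, 72 h is given: breast cancer and non-malignant breast epithelial cell lines, Deep Dye Drop or Dye Drop imaging, nine half-log doses, GR normalized to time-zero plates and DMSO-only controls.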

## SUM44PE
ABT-737
  GR50, 72 h: 4.3 µM
Saracatinib/AZD0530
  GR50, 72 h: 6.6 µM
Flavopiridol [1]
  GR50, 72 h: 0.0276 µM
[2]
  GR50, 72 h: < 0.001 µM
Taselisib/GDC0032
  GR50, 72 h: 0.00347 µM
YKL-5-124; 0.001 µM
  GR value: -0.181 GR
YKL-5-124; 0.003162 µM
  GR value: 0.0065 GR
YKL-5-124; 0.01 µM
  GR value: -0.018 GR
YKL-5-124; 0.03162 µM
  GR value: -0.112 GR
YKL-5-124; 0.1 µM
  GR value: -0.198 GR
YKL-5-124; 0.3162 µM
  GR value: -0.167 GR
YKL-5-124; 1 µM
  GR value: -0.274 GR
YKL-5-124; 3.162 µM
  GR value: -0.448 GR
BSJ-03-123; 0.001 µM
  GR value: 0.917 GR
BSJ-03-123; 0.003162 µM
  GR value: 0.854 GR
BSJ-03-123; 0.01 µM
  GR value: 0.911 GR
BSJ-03-123; 0.03162 µM
  GR value: 0.8 GR
BSJ-03-123; 0.1 µM
  GR value: 0.722 GR
BSJ-03-123; 0.3162 µM
  GR value: 0.669 GR
BSJ-03-123; 1 µM
  GR value: 0.45 GR
BSJ-03-123; 3.162 µM
  GR value: 0.337 GR
[3]; 0.0003162 µM
  GR value: 1.09 GR
[3]; 0.001 µM
  GR value: 0.993 GR
[3]; 0.003162 µM
  GR value: 1.03 GR
[3]; 0.01 µM
  GR value: 1.04 GR
[3]; 0.03162 µM
  GR value: 0.784 GR
[3]; 0.1 µM
  GR value: 0.588 GR
[3]; 0.3162 µM
  GR value: 0.461 GR
[3]; 1 µM
  GR value: 0.514 GR
[3]; 3.162 µM
  GR value: 0.397 GR
[4]; 0.001 µM
  GR value: 0.905 GR
[4]; 0.003162 µM
  GR value: 0.922 GR
[4]; 0.01 µM
  GR value: 0.666 GR
[4]; 0.03162 µM
  GR value: 0.413 GR
[4]; 0.1 µM
  GR value: 0.251 GR
[4]; 0.3162 µM
  GR value: 0.237 GR
[4]; 1 µM
  GR value: 0.201 GR
[4]; 3.162 µM
  GR value: 0.134 GR
[4]; 10 µM
  GR value: -0.763 GR
Neratinib/HKI272; 0.0003162 µM
  GR value: 0.966 GR
Neratinib/HKI272; 0.001 µM
  GR value: 0.921 GR
Neratinib/HKI272; 0.003162 µM
  GR value: 0.764 GR
Neratinib/HKI272; 0.01 µM
  GR value: 0.465 GR
Neratinib/HKI272; 0.03162 µM
  GR value: 0.417 GR
Neratinib/HKI272; 0.1 µM
  GR value: 0.312 GR
Neratinib/HKI272; 0.3162 µM
  GR value: 0.209 GR
Neratinib/HKI272; 1 µM
  GR value: 0.0292 GR
Neratinib/HKI272; 3.162 µM
  GR value: -0.218 GR
[5]; 0.0001 µM
  GR value: 0.983 GR
[5]; 0.0003162 µM
  GR value: 1.03 GR
[5]; 0.001 µM
  GR value: 1.08 GR
[5]; 0.003162 µM
  GR value: 0.918 GR
[5]; 0.01 µM
  GR value: 0.257 GR
[5]; 0.03162 µM
  GR value: -0.925 GR
LEE011/Ribociclib; 0.001 µM
  GR value: 0.854 GR
LEE011/Ribociclib; 0.003162 µM
  GR value: 0.783 GR
LEE011/Ribociclib; 0.01 µM
  GR value: 0.676 GR
LEE011/Ribociclib; 0.03162 µM
  GR value: 0.637 GR
LEE011/Ribociclib; 0.1 µM
  GR value: 0.663 GR
LEE011/Ribociclib; 0.3162 µM
  GR value: 0.636 GR
LEE011/Ribociclib; 1 µM
  GR value: 0.55 GR
LEE011/Ribociclib; 3.162 µM
  GR value: 0.545 GR
LEE011/Ribociclib; 10 µM
  GR value: 0.378 GR
THZ531; 0.0001 µM
  GR value: 1.05 GR
THZ531; 0.0003162 µM
  GR value: 0.994 GR
THZ531; 0.001 µM
  GR value: 0.799 GR
THZ531; 0.003162 µM
  GR value: 1.04 GR
THZ531; 0.01 µM
  GR value: 0.941 GR
THZ531; 0.03162 µM
  GR value: 0.783 GR
THZ531; 0.1 µM
  GR value: -0.203 GR
THZ1; 0.0001 µM
  GR value: 1.02 GR
THZ1; 0.0003162 µM
  GR value: 0.977 GR
THZ1; 0.001 µM
  GR value: 0.784 GR
THZ1; 0.003162 µM
  GR value: 0.888 GR
THZ1; 0.01 µM
  GR value: -0.229 GR
THZ1; 1 µM
  GR value: -0.0313 GR
Flavopiridol [6]; 0.0001 µM
  GR value: 0.968 GR
Flavopiridol [6]; 0.0003162 µM
  GR value: 0.969 GR
Flavopiridol [6]; 0.001 µM
  GR value: 0.862 GR
Flavopiridol [6]; 0.003162 µM
  GR value: 0.951 GR
Flavopiridol [6]; 0.01 µM
  GR value: 0.707 GR
Flavopiridol [6]; 0.03162 µM
  GR value: 0.489 GR
Flavopiridol [6]; 0.1 µM
  GR value: -0.0333 GR
Flavopiridol [6]; 0.3162 µM
  GR value: -0.573 GR
